According to patent US8653012B2, “Mutual solvent-soluble and/or alcohol blends-soluble particles for viscoelastic surfactant fluids” (Baker Hughes Incorporated, priority 2008, dated 2014):

Assays:
[1] = Solubility of dicarboxylic acid agents in various solvents; assay type: physicochemical; details: 183° F. (84° C.)
Excerpt: (§1) Two different dicarboxylic particles were used in the Examples herein. […] LCA141 is dodecanedioic acid (DDDA) (Agent B in U.S. Pat. No. 6,994,166), also from INVISTA.

[2] = Water solubility of dicarboxylic acid agents; assay type: physicochemical
Excerpt: as §1

Solubility, % ([1]; Blend C (50:50 v/v isopropanol and oxyalkylated alcohol mixture)): 6.99 (183° F. (84° C.)) %
Solubility, % ([1]; Ethylene glycol monobutyl ether (EGMBE)): 5.89 (183° F. (84° C.)) %
Solubility, % ([1]; Isopropanol): >9.73 (183° F. (84° C.)) %
Water solubility ([2]; 70° F. (21° C.)): Very low (70° F. (21° C.))
Water solubility ([2]; 140° F. (60° C.)): 0.012% (140° F. (60° C.))
Water solubility ([2]; 176° F. (80° C.)): 0.01% (176° F. (80° C.))
Water solubility ([2]; 212° F. (100° C.)): 0.04% (212° F. (100° C.))
Compound: O=C(O)CCCCCCCCCCC(=O)O [LCA141, dodecanedioic acid]
